Data: patent US20090105260A1, “Molecules to Enhance Percutaneous Delivery and Methods for Discovery Therefor” (priority 2005, published 2009)

System: porcine skin (ER); EpiDerm™ normal human derived epidermal keratinocytes (IP)
Test: ER/IP: skin conductivity enhancement ratio (INSIGHT apparatus) divided by irritation potential (EpiDerm MTT viability)
Design: species or system Yorkshire pigs; human
Settings: EpiDerm and INSIGHT apparatus, procedures of Examples 1 and 2; FIG. 32 left-hand panel
Procedure: Formulations containing 1.5% (wt/vol) of each CPE were prepared in a 1:1 EtOH:PBS (ethanol:phosphate buffered saline) solvent.
Irritation potential of formulations was estimated using EpiDerm™ (MatTek Corporation, Ashland, Mass. www.mattek.com), a cell culture of normal human derived epidermal keratinocytes. EpiDerm™ cultures were stored and handled according to the standard protocol MTT-ET-50 supplied by MatTek Corporation. To study the effect of the test formulations on cell viability, cell cultures were exposed to 10 μl of the test formulation consisting of 1.5% (wt/vol) of each CPE in a 1:1 EtOH:PBS solvent for 4 hours. Each test formulation was analyzed in duplicate. The cell cultures were then handled as per the MTT-ET-50 protocol. The optical absorbance data from the extracted samples was then used to calculate the percentage cell viability as recommended in the protocol. Based on the cell viability, the irritation potential, IP, was defined as follows:
1% (wt/vol) Triton X-100 dissolved in water was used as the positive control and 1:1 PBS:EtOH was used as negative control. […]
Enhancement ratios were measured using an apparatus (the INSIGHT apparatus) which consisted of a polycarbonate plate that served as the receptor plate and a Teflon® plate that served as the donor plate. […]
Skin impedance in each well was recorded using two electrodes. […]

C=C(C)C(=O)OCCCCCCCCCCCCCCCCCC [SM, stearyl methacrylate]
FP/IPDescriptor (ER/IP determined experimentally) relative to oleic acid: about 3 times
